Data published in US4081531A, “Antibiotic mimosamycin” (priority 1975, dated 1978).
Converted amounts (≈) assume the structure as drawn.

How the values were obtained:
[1] = tested on: Aspergillus oryzae; assay: Antimicrobial spectrum (MIC); assay type: cell-based; conditions: Sabouraud dextrose agar, 27° C, 48 hours
[2] = tested on: Staphylococcus citreus; assay: Antimicrobial spectrum (MIC); assay type: cell-based; conditions: 1% glucose nutrient agar, 37° C, 24 or 48 hours
[3] = tested on: Streptococcus hemolyticus Coock; assay: Antimicrobial spectrum (MIC); assay type: cell-based; conditions: blood agar, 37° C, 24 or 48 hours
[4] = tested on: Staphylococcus aureus Smith; assay: Antimicrobial spectrum (MIC); assay type: cell-based; conditions: 1% glucose nutrient agar, 37° C, 24 or 48 hours
[5] = tested on: Corynebacterium diphtheriae; assay: Antimicrobial spectrum (MIC); assay type: cell-based; conditions: 1% glucose nutrient agar, 37° C, 24 or 48 hours
[6] = tested on: Streptococcus salivarius; assay: Antimicrobial spectrum (MIC); assay type: cell-based; conditions: 1% glucose nutrient agar, 37° C, 24 or 48 hours
[7] = tested on: Mucor mucedo; assay: Antimicrobial spectrum (MIC); assay type: cell-based; conditions: Sabouraud dextrose agar, 27° C, 48 hours
[8] = tested on: Shigella dysenteriae; assay: Antimicrobial spectrum (MIC); assay type: cell-based; conditions: 1% glucose nutrient agar, 37° C, 24 or 48 hours
[9] = tested on: Salmonella typhimurium; assay: Antimicrobial spectrum (MIC); assay type: cell-based; conditions: 1% glucose nutrient agar, 37° C, 24 or 48 hours
[10] = tested on: Brucella abortus; assay type: cell-based; conditions: blood agar, 37° C, 24 or 48 hours
[11] = tested on: Escherichia coli; assay: Antimicrobial spectrum (MIC); assay type: cell-based; conditions: 1% glucose nutrient agar, 37° C, 24 or 48 hours
[12] = tested on: Bacillus cereus; assay: Antimicrobial spectrum (MIC); assay type: cell-based; conditions: 1% glucose nutrient agar, 37° C, 24 or 48 hours
[13] = tested on: Serratia marcescens; assay: Antimicrobial spectrum (MIC); assay type: cell-based; conditions: 1% glucose nutrient agar, 37° C, 24 or 48 hours
[14] = tested on: Streptococcus faecalis; assay: Antimicrobial spectrum (MIC); assay type: cell-based; conditions: 1% glucose nutrient agar, 37° C, 24 or 48 hours
[15] = tested on: Tolura rubra; assay: Antimicrobial spectrum (MIC); assay type: cell-based; conditions: Sabouraud dextrose agar, 27° C, 48 hours
[16] = tested on: Saccharomyces cerevisiae; assay: Antimicrobial spectrum (MIC); assay type: cell-based; conditions: Sabouraud dextrose agar, 27° C, 48 hours
[17] = tested on: Mycobacterium phlei; assay: Antimicrobial spectrum (MIC); assay type: cell-based; conditions: 3% glycerin nutrient agar, 37° C, 24 or 48 hours
[18] = tested on: Trichophyton mentagrophytes; assay: Antimicrobial spectrum (MIC); assay type: cell-based; conditions: Sabouraud dextrose agar, 27° C, 72 hours
[19] = tested on: Corynebacterium xerosis; assay: Antimicrobial spectrum (MIC); assay type: cell-based; conditions: 1% glucose nutrient agar, 37° C, 24 or 48 hours
[20] = tested on: Lactobacillus arabinosus; assay: Antimicrobial spectrum (MIC); assay type: cell-based; conditions: 1% glucose nutrient agar, 37° C, 24 or 48 hours
[21] = tested on: Pseudomonas aeruginosa; assay: Antimicrobial spectrum (MIC); assay type: cell-based; conditions: 1% glucose nutrient agar, 37° C, 24 or 48 hours
[22] = tested on: Candida albicans; assay: Antimicrobial spectrum (MIC); assay type: cell-based; conditions: Sabouraud dextrose agar, 27° C, 48 hours
[23] = tested on: Staphylococcus albus; assay: Antimicrobial spectrum (MIC); assay type: cell-based; conditions: 1% glucose nutrient agar, 37° C, 24 or 48 hours
[24] = tested on: Streptococcus hemolyticus 090R; assay: Antimicrobial spectrum (MIC); assay type: cell-based; conditions: blood agar, 37° C, 24 or 48 hours
[25] = tested on: Klebsiella pneumonaie; assay: Antimicrobial spectrum (MIC); assay type: cell-based; conditions: 1% glucose nutrient agar, 37° C, 24 or 48 hours
[26] = tested on: Bacillus subtilis PCI 219; assay: Antimicrobial spectrum (MIC); assay type: cell-based; conditions: 1% glucose nutrient agar, 37° C, 24 or 48 hours
[27] = tested on: Mycobacterium avium; assay: Antimicrobial spectrum (MIC); assay type: cell-based; conditions: 3% glycerin nutrient agar, 37° C, 24 or 48 hours
[28] = tested on: gram-negative bacteria; assay: Antibacterial activity against gram-negative bacteria; assay type: cell-based; conditions: for antibacterial activity against most gram-negative bacteria: chlorocarcins, summary of Table 5
[29] = Tolerability in mice, intravenous injection; assay type: in vivo; conditions: for toxicity: mice
Description: (§1) Remarks: Nutrient agar, 37° C, 48 hours for m. smegmatis. Sauton's liquid medium, 37° C, 4 weeks for other 3 strains. The strains SMR and Matsudo resistant to streptomycin at 1000 μg/ml or higher. Mice (18 - 20 g.) tolerated intravenous injection of 50 mg./kg. of mimosamycin.
(A) and 250 mg./kg.(B and C), respectively.

[30] = tested on: Penicillium glaucum; assay: Antimicrobial spectrum (MIC); assay type: cell-based; conditions: Sabouraud dextrose agar, 27° C, 48 hours
[31] = tested on: Aspergillus niger; assay: Antimicrobial spectrum (MIC); assay type: cell-based; conditions: Sabouraud dextrose agar, 27° C, 48 hours
[32] = tested on: gram-positive bacteria; assay: Antibacterial activity against gram-positive bacteria; assay type: cell-based; conditions: for antibacterial activity against gram-positive bacteria: chlorocarcins, summary of Table 5
[33] = tested on: Mycobacterium smegmatis ATCC 607; assay: Antimicrobial spectrum (MIC); assay type: cell-based; conditions: 3% glycerin nutrient agar, 37° C, 24 or 48 hours
[34] = tested on: Nocardia asteoides; assay: Antimicrobial spectrum (MIC); assay type: cell-based; conditions: 37° C, 24 or 48 hours
[35] = Solubility; assay type: physicochemical
[36] = tested on: Staphylococcus aureus 209 P; assay: Antimicrobial spectrum (MIC); assay type: cell-based; conditions: 1% glucose nutrient agar, 37° C, 24 or 48 hours
[37] = tested on: Mycobacterium smegmatis ATCC607; assay: Antimicrobial activity (MIC) of mimosamycin; assay type: cell-based; conditions: Mycolicibacterium smegmatis, Nutrient agar, 37° C, 48 hours
Description: as §1

[38] = tested on: Mycobacterium tuberculosis H37 RV; assay: Antimicrobial activity (MIC) against tubercle bacilli; assay type: cell-based; conditions: H37RV, 672 h, Sauton's liquid medium, 37° C, 4 weeks
[39] = tested on: tubercle bacilli; assay: Effect against tubercle bacilli; assay type: cell-based
[40] = tested on: acid-fast bacteria; assay: Activity against acid-fast bacteria; assay type: cell-based
[41] = tested on: Mycobacterium bovis No. 10; assay: microbe, parasite or virus in culture; assay type: cell-based; conditions: Mycobacterium tuberculosis variant bovis, NO.10, 672 h
[42] = tested on: fungi; assay: Activity against fungi; assay type: cell-based; conditions: at 50 μg/ml
[43] = tested on: highly streptomycin-resistant strains of human tubercle bacilli; assay type: cell-based; conditions: as is against normal strains of tubercle bacilli
[44] = Lower alcohols, chloroform, esters, acetone, benzene, ethyl ether

For chlorocarcin A, the MIC [1] was > 100 µg/mL, the MIC [2] was 0.1 µg/mL and the MIC [3] was 6.25 µg/mL. It also gave an MIC [4] of 0.02 µg/mL, an MIC [5] of 0.003 µg/mL and an MIC [6] of 6.25 µg/mL. The MIC [7] was > 100 µg/mL, the MIC [8] was > 100 µg/mL and the MIC [9] was > 100 µg/mL. For the same compound, the MIC [10] was > 100 µg/mL, the MIC [11] was > 100 µg/mL and the MIC [12] was 50 µg/mL. For the same compound, the MIC [13] was > 100 µg/mL, the MIC [14] was 25 µg/mL and the MIC [15] was > 100 µg/mL. For the same compound, the MIC [16] was > 100 µg/mL, the MIC [17] was 100 µg/mL and the MIC [18] was 100 µg/mL. The MIC [19] was 0.003 µg/mL, the MIC [20] was 12.5 µg/mL and the MIC [21] was > 100 µg/mL. For the same compound, the MIC [22] was > 100 µg/mL, the MIC [23] was 0.1 µg/mL and the MIC [24] was 50 µg/mL. The MIC [25] was 100 µg/mL, the MIC [26] was 0.2 µg/mL and the MIC [27] was 100 µg/mL. For the same compound, the “antibacterial activity against most gram-negative bacteria” value [28] was “little antibacterial activity”, the toxicity [29] was “relatively low toxicity” and the MIC [30] was > 100 µg/mL. The MIC [31] was > 100 µg/mL, the “antibacterial activity against gram-positive bacteria” value [32] was “mainly show an antibacterial activity” and the MIC [33] was 100 µg/mL. For the same compound, the MIC [34] was 25 µg/mL, the Solubility ([35]; Ethyl ether, esters, chloroform, acetone, alcohols, 0.1N HCl) was “Easily soluble” and the Solubility ([35]; Water) was “Insoluble”. For the same compound, the Solubility ([35]; n-hexane, 0.1N NaOH) was “Sparingly soluble” and the MIC [36] was 0.1 µg/mL.

With COC1=C(C)C(=O)c2cc(=O)n(C)cc2C1=O [mimosamycin] the MIC [37] was 25 µg/mL (≈ 107 µM), the MIC [38] was 1.56 µg/mL (≈ 6.69 µM) and the “effect against tubercle bacilli” value [39] was “specifically effective”. For the same compound, the “activity against acid-fast bacteria” value [40] was “active”, the MIC [41] was 6.25 µg/mL (≈ 26.8 µM) and the “activity against gram-negative bacteria” value ([28]; at 50 μg/ml) was “non-effective”. The MTD ([29]; mouse, in vivo, mice 18 - 20 g, read-out: tolerated dose) was 50 mg/kg, the “activity against gram-positive bacteria” value ([32]; mimosamycin) was “active against gram-positive bacteria to a certain extent” and the Solubility ([35]; Ethyl ether, n-hexane) was “Sparingly soluble”. For the same compound, the Solubility ([35]; Methanol, ethanol, chloroform, esters, acetone) was “Easily soluble”, the Solubility ([35]; Water) was “Insoluble” and the activity against fungi [42] was “non-effective”. For the same compound, the “activity against highly streptomycin-resistant strains of human tubercle bacilli” value [43] was “effective”.

In the case of chlorocarcin B, the MIC [1] is reported as > 100 µg/mL, the MIC [2] is reported as 25 µg/mL and the MIC [3] is reported as 6.25 µg/mL. It also gave an MIC [4] of 12.5 µg/mL, an MIC [5] of 0.05 µg/mL and an MIC [6] of 50 µg/mL. The MIC [7] was > 100 µg/mL, the MIC [8] was > 100 µg/mL and the MIC [9] was > 100 µg/mL. The MIC [10] was > 100 µg/mL, the MIC [11] was > 100 µg/mL and the MIC [12] was 50 µg/mL. For the same compound, the MIC [13] was > 100 µg/mL, the MIC [14] was > 100 µg/mL and the MIC [15] was > 100 µg/mL. For the same compound, the MIC [16] was > 100 µg/mL, the MIC [17] was > 100 µg/mL and the MIC [18] was > 100 µg/mL. For the same compound, the MIC [19] was 0.39 µg/mL, the MIC [20] was 50 µg/mL and the MIC [21] was > 100 µg/mL. The MIC [22] was > 100 µg/mL, the MIC [23] was 50 µg/mL and the MIC [24] was 100 µg/mL. For the same compound, the MIC [25] was 50 µg/mL, the MIC [26] was 25 µg/mL and the MIC [27] was > 100 µg/mL. For the same compound, the “antibacterial activity against most gram-negative bacteria” value [28] was “little antibacterial activity”, the toxicity [29] was “relatively low toxicity” and the MIC [30] was > 100 µg/mL. For the same compound, the MIC [31] was > 100 µg/mL, the “antibacterial activity against gram-positive bacteria” value [32] was “mainly show an antibacterial activity” and the MIC [33] was > 100 µg/mL. The MIC [34] was 50 µg/mL, the Solubility [35, 44] was “Easily soluble” and the Solubility ([35]; Water) was “Insoluble”. The Solubility ([35]; n-hexane) was “Sparingly soluble” and the MIC [36] was 12.5 µg/mL.

For chlorocarcin C, the MIC [1] was > 100 µg/mL, the MIC [2] was 25 µg/mL and the MIC [3] was 6.25 µg/mL. It also gave an MIC [4] of 12.5 µg/mL, an MIC [5] of 0.05 µg/mL and an MIC [6] of 50 µg/mL. For the same compound, the MIC [7] was > 100 µg/mL, the MIC [8] was > 100 µg/mL and the MIC [9] was > 100 µg/mL. For the same compound, the MIC [10] was > 100 µg/mL, the MIC [11] was > 100 µg/mL and the MIC [12] was 50 µg/mL. For the same compound, the MIC [13] was > 100 µg/mL, the MIC [14] was > 100 µg/mL and the MIC [15] was > 100 µg/mL. For the same compound, the MIC [16] was > 100 µg/mL, the MIC [17] was > 100 µg/mL and the MIC [18] was > 100 µg/mL. For the same compound, the MIC [19] was 0.39 µg/mL, the MIC [20] was 50 µg/mL and the MIC [21] was > 100 µg/mL. The MIC [22] was > 100 µg/mL, the MIC [23] was 50 µg/mL and the MIC [24] was 100 µg/mL. For the same compound, the MIC [25] was 50 µg/mL, the MIC [26] was 25 µg/mL and the MIC [27] was > 100 µg/mL. For the same compound, the “antibacterial activity against most gram-negative bacteria” value [28] was “little antibacterial activity”, the toxicity [29] was “relatively low toxicity” and the MIC [30] was > 100 µg/mL. The MIC [31] was > 100 µg/mL, the “antibacterial activity against gram-positive bacteria” value [32] was “mainly show an antibacterial activity” and the MIC [33] was > 100 µg/mL. The MIC [34] was 50 µg/mL, the Solubility [35, 44] was “Easily soluble” and the Solubility ([35]; Water) was “Insoluble”. The Solubility ([35]; n-hexane) was “Sparingly soluble” and the MIC [36] was 12.5 µg/mL.
